Source: the supplement of paper PMC10307832

Legend:
Assay in all cases: relative viability (nuclei count vs DMSO), 5 days (fraction); higher = more cells survive
[1] = compound: Cc1ccc2nc(NCCN)c3ncc(C)n3c2c1 + CS(=O)(=O)CCNCc1ccc(-c2ccc3ncnc(Nc4ccc(OCc5cccc(F)c5)c(Cl)c4)c3c2)o1 [Lapatinib] (partner 2 µM)
Method in brief: (§1)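 For relative viability, nuclei counts in treated wells were divided by those in vehicle wells. Lung cancer cell lines had been pin-tool dosed in 1536-well plates the day after seeding and cultured for 5 days, then fixed and stained in one step (final 0.05% Triton X-100, 1% formaldehyde, 1 ug/ml Hoechst) and imaged at 4×. Doses were one drug alone or a fixed anchor-drug dose plus five library-drug doses (not always all listed) in √10 steps, and values are duplicate-plate medians.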

[2] = compound: O=C(/C=C/c1ccccc1)NC(NC(=S)Nc1cccc2cccnc12)C(Cl)(Cl)Cl [Salubrinal] + Nc1ncn([C@H]2C[C@H](O)[C@@H](CO)O2)c(=O)n1 [Decitabine] (partner 2 µM)
Method in brief: as §1

[3] = compound: Cc1ccc2nc(NCCN)c3ncc(C)n3c2c1 + O=C(c1cc(Cc2n[nH]c(=O)c3ccccc23)ccc1F)N1CCN(C(=O)C2CC2)CC1 [Olaparib] (partner 8 µM)
Method in brief: as §1

[4] = compound: O=C(/C=C/c1ccccc1)NC(NC(=S)Nc1cccc2cccnc12)C(Cl)(Cl)Cl [Salubrinal] + Cc1cc(Nc2cc(N3CCN(C)CC3)nc(Sc3ccc(NC(=O)C4CC4)cc3)n2)n[nH]1 [Tozasertib] (partner 0.1 µM)
Method in brief: as §1

Cell Line | relative viability ([1]; first compound 0.04 µM) | relative viability ([1]; first compound 0.1265 µM) | relative viability ([1]; first compound 0.4 µM) | relative viability ([1]; first compound 1.265 µM) | relative viability ([1]; first compound 4 µM) | relative viability ([2]; first compound 0.08 µM) | relative viability ([2]; first compound 0.253 µM) | relative viability ([2]; first compound 0.8 µM) | relative viability ([2]; first compound 2.53 µM) | relative viability ([2]; first compound 8 µM) | relative viability ([3]; first compound 0.04 µM) | relative viability ([3]; first compound 0.1265 µM) | relative viability ([3]; first compound 0.4 µM) | relative viability ([3]; first compound 1.265 µM) | relative viability ([3]; first compound 4 µM) | relative viability ([4]; first compound 0.08 µM) | relative viability ([4]; first compound 0.253 µM) | relative viability ([4]; first compound 0.8 µM) | relative viability ([4]; first compound 2.53 µM) | relative viability ([4]; first compound 8 µM)
LK-2 | 0.961 | 0.879 | 0.823 | 0.748 | 0.761 | 0.269 | 0.306 | 0.399 | 0.385 | 0.266 | 0.707 | 0.778 | 0.706 | 0.757 | 0.672 | 0.158 | 0.197 | 0.178 | 0.198 | 0.176
LOU-NH91 | 0.784 | 0.846 | 0.782 | 0.777 | 0.766 | 0.837 | 0.842 | 0.817 | 0.845 | 0.777 | 0.921 | 0.92 | 0.877 | 0.868 | 0.865 | 0.794 | 0.639 | 0.626 | 0.706 | 0.59
LU99A | 1 | 0.944 | 1.06 | 0.957 | 0.986 | 1.05 | 0.844 | 0.938 | 0.951 | 0.757 | 0.322 | 0.319 | 0.288 | 0.29 | 0.258 | 0.253 | 0.267 | 0.265 | 0.275 | 0.27
LXF-289 | 0.956 | 0.882 | 0.894 | 0.873 | 0.902 | 0.338 | 0.382 | 0.357 | 0.43 | 0.405 | 1.16 | 1.02 | 1.03 | 1.13 | 1.1 | 0.183 | 0.18 | 0.216 | 0.194 | 0.201
NCI-H23 | 1.09 | 1.12 | 1.19 | 1.15 | 0.937 | 0.315 | 0.316 | 0.304 | 0.312 | 0.291 | 0.37 | 0.324 | 0.319 | 0.276 | 0.242 | 0.349 | 0.393 | 0.678 | 0.305 | 0.296
NCI-H322M | 0.535 | 0.593 | 0.586 | 0.59 | 0.603 | 0.785 | 0.648 | 0.684 | 0.716 | 0.656 | 0.698 | 0.816 | 0.881 | 0.796 | 0.638 | 0.511 | 0.445 | 0.479 | 0.44 | 0.469
NCI-H358 | 0.549 | 0.486 | 0.434 | 0.508 | 0.511 | 0.24 | 0.219 | 0.234 | 0.188 | 0.202 | 0.646 | 0.644 | 0.603 | 0.607 | 0.517 | 0.107 | 0.12 | 0.111 | 0.108 | 0.0983
NCI-H460 | 0.999 | 1 | 0.886 | 0.898 | 0.745 | 0.517 | 0.461 | 0.475 | 0.379 | 0.444 | 0.481 | 0.421 | 0.443 | 0.342 | 0.273 | 0.393 | 0.268 | 0.484 | 0.253 | 0.102
NCI-H520 | 0.964 | 0.853 | 0.866 | 0.837 | 0.729 | 0.551 | 0.579 | 0.575 | 0.501 | 0.576 | 0.308 | 0.368 | 0.323 | 0.304 | 0.266 | 0.501 | 0.446 | 0.44 | 0.403 | 0.469
NCI-H596 | 1.12 | 1.11 | 1.31 | 0.962 | 1.05 | 1.1 | 1.02 | 1.18 | 0.969 | 0.863 | 0.77 | 0.857 | 0.771 | 0.637 | 0.715 | 0.968 | 1.1 | 0.897 | 0.909 | 0.806
NCI-H647 | 1.08 | 1.02 | 0.948 | 1.13 | 0.707 | 0.389 | 0.452 | 0.451 | 0.443 | 0.552 | 0.602 | 0.492 | 0.517 | 0.642 | 0.268 | 0.418 | 0.287 | 0.319 | 0.288 | 0.009
NCI-H650 | 0.927 | 0.123 | 0.645 | 0.969 | 0.761 | 0.288 | 0.297 | 0.352 | 0.298 | 0.323 | 0.374 | 0.364 | 0.39 | 0.393 | 0.399 | 0.81 | 0.768 | 0.798 | 0.687 | 0.704
NCI-H661 | 0.587 | 0.407 | 0.43 | – | 0.458 | 0.602 | 0.474 | 0.57 | 0.474 | 0.536 | 0.78 | 0.815 | 0.701 | 0.661 | 0.631 | 0.367 | 0.36 | 0.373 | 0.356 | 0.37
NCI-H727 | 1.22 | 0.887 | 1.19 | 0.766 | 0.762 | 0.802 | 0.876 | 0.847 | 0.837 | 0.825 | 0.561 | – | 0.731 | 0.785 | 0.709 | 0.651 | 0.718 | 0.563 | 0.608 | 0.575
NCI-H838 | 1.08 | 1.01 | 0.919 | 0.974 | 0.837 | 0.493 | 0.471 | 0.462 | 0.417 | 0.464 | 0.791 | 0.717 | 0.709 | 0.759 | 0.696 | 0.292 | 0.246 | 0.291 | 0.25 | 0.259
NCI-H1355 | 1.02 | 0.981 | 0.962 | 0.952 | 0.988 | 0.352 | 0.394 | 0.359 | 0.36 | 0.35 | 0.79 | 0.72 | 0.754 | 0.764 | 0.659 | 0.697 | 0.519 | 0.524 | 0.498 | 0.477
NCI-H1395 | 0.936 | 0.917 | 0.958 | 0.994 | 0.803 | 0.792 | 0.686 | 0.707 | 0.67 | 0.692 | 0.47 | 0.467 | 0.491 | 0.429 | 0.437 | 0.822 | 0.849 | 0.72 | 0.714 | 0.805
